Columns and labels:
Test in all cases: KINOMEscan
Assay type in all cases: binding
Conditions in all cases: read-out: percent of control
[1] = target: CDK9 (Homo sapiens (Human), UniProt P50750)
Method: (§1) In vitro profiling of Compound I-2 (1 μM) was performed using the DiscoveRx KINOMEscan® platform.

[2] = target: FLT3 (Homo sapiens (Human), UniProt P36888)
Method: as §1

[3] = target: EGFR(L747-E749del,A750P) (Homo sapiens (Human), UniProt P00533, A750P/DEL747-749)
Method: as §1

[4] = target: PCTK3 (Homo sapiens (Human), UniProt Q07002)
Method: as §1

[5] = target: LRRK2(G2019S) (Homo sapiens (Human), UniProt Q5S007, G2019S)
Method: as §1

[6] = target: LATS1 (Homo sapiens (Human), UniProt O95835)
Method: as §1

[7] = target: PIK3CA(H1047Y) (Homo sapiens (Human), UniProt P42336, H1047Y)
Method: as §1

[8] = target: PHKG2 (Homo sapiens (Human), UniProt P15735)
Method: as §1

[9] = target: RPS6KA4 (Kin.Dom.2-C-terminal) (Homo sapiens (Human), UniProt O75676)
Method: as §1

[10] = target: ERN1 (Homo sapiens (Human), UniProt O75460)
Method: as §1

[11] = target: CIT (Homo sapiens (Human), UniProt O14578)
Method: as §1

[12] = target: PIK3CA(1800L) (Homo sapiens (Human), UniProt P42336, I800L)
Method: as §1

[13] = target: FGFR1 (Homo sapiens (Human), UniProt P11362)
Method: as §1

[14] = target: FGFR3 (Homo sapiens (Human), UniProt P22607)
Method: as §1

[15] = target: PKNB (M.tuberculosis) (Mycobacterium tuberculosis (strain ATCC 25618 / H37Rv), UniProt P9WI81)
Method: as §1

[16] = target: TSSK3 (Homo sapiens (Human), UniProt Q96PN8)
Method: as §1

[17] = target: ITK (Homo sapiens (Human), UniProt Q08881)
Method: as §1

[18] = target: STK36 (Homo sapiens (Human), UniProt Q9NRP7)
Method: as §1

[19] = target: KIT(V559D,V654A) (Homo sapiens (Human), UniProt P10721, V559D/V654A)
Method: as §1

[20] = target: AKT2 (Homo sapiens (Human), UniProt P31751)
Method: as §1

[21] = target: ZAP70 (Homo sapiens (Human), UniProt P43403)
Method: as §1

[22] = target: MST2 (Homo sapiens (Human), UniProt Q13188)
Method: as §1

[23] = target: SBK1 (Homo sapiens (Human), UniProt Q52WX2)
Method: as §1

[24] = target: DDR2 (Homo sapiens (Human), UniProt Q16832)
Method: as §1

[25] = target: GRK7 (Homo sapiens (Human), UniProt Q8WTQ7)
Method: as §1

[26] = target: MARK2 (Homo sapiens (Human), UniProt Q7KZI7)
Method: as §1

[27] = target: ERK8 (Homo sapiens (Human), UniProt Q8TD08)
Method: as §1

[28] = target: BMX (Homo sapiens (Human), UniProt P51813)
Method: as §1

[29] = target: MAPKAPK5 (Homo sapiens (Human), UniProt Q8IW41)
Method: as §1

[30] = target: EGFR(L858R, T790M) (Homo sapiens (Human), UniProt P00533, L858R/T790M)
Method: as §1

[31] = target: BLK (Homo sapiens (Human), UniProt P51451)
Method: as §1

[32] = target: TNK2 (Homo sapiens (Human), UniProt Q07912)
Method: as §1

[33] = target: PRKCH (Homo sapiens (Human), UniProt P24723)
Method: as §1

[34] = target: BRSK2 (Homo sapiens (Human), UniProt Q8IWQ3)
Method: as §1

[35] = target: ERK1 (Homo sapiens (Human), UniProt P27361)
Method: as §1

[36] = target: TLK1 (Homo sapiens (Human), UniProt Q9UKI8)
Method: as §1

[37] = target: MEK1 (Homo sapiens (Human), UniProt Q02750)
Method: as §1

[38] = target: YSK4 (Homo sapiens (Human), UniProt Q56UN5)
Method: as §1

Chain of CIT (O14578 whole entry): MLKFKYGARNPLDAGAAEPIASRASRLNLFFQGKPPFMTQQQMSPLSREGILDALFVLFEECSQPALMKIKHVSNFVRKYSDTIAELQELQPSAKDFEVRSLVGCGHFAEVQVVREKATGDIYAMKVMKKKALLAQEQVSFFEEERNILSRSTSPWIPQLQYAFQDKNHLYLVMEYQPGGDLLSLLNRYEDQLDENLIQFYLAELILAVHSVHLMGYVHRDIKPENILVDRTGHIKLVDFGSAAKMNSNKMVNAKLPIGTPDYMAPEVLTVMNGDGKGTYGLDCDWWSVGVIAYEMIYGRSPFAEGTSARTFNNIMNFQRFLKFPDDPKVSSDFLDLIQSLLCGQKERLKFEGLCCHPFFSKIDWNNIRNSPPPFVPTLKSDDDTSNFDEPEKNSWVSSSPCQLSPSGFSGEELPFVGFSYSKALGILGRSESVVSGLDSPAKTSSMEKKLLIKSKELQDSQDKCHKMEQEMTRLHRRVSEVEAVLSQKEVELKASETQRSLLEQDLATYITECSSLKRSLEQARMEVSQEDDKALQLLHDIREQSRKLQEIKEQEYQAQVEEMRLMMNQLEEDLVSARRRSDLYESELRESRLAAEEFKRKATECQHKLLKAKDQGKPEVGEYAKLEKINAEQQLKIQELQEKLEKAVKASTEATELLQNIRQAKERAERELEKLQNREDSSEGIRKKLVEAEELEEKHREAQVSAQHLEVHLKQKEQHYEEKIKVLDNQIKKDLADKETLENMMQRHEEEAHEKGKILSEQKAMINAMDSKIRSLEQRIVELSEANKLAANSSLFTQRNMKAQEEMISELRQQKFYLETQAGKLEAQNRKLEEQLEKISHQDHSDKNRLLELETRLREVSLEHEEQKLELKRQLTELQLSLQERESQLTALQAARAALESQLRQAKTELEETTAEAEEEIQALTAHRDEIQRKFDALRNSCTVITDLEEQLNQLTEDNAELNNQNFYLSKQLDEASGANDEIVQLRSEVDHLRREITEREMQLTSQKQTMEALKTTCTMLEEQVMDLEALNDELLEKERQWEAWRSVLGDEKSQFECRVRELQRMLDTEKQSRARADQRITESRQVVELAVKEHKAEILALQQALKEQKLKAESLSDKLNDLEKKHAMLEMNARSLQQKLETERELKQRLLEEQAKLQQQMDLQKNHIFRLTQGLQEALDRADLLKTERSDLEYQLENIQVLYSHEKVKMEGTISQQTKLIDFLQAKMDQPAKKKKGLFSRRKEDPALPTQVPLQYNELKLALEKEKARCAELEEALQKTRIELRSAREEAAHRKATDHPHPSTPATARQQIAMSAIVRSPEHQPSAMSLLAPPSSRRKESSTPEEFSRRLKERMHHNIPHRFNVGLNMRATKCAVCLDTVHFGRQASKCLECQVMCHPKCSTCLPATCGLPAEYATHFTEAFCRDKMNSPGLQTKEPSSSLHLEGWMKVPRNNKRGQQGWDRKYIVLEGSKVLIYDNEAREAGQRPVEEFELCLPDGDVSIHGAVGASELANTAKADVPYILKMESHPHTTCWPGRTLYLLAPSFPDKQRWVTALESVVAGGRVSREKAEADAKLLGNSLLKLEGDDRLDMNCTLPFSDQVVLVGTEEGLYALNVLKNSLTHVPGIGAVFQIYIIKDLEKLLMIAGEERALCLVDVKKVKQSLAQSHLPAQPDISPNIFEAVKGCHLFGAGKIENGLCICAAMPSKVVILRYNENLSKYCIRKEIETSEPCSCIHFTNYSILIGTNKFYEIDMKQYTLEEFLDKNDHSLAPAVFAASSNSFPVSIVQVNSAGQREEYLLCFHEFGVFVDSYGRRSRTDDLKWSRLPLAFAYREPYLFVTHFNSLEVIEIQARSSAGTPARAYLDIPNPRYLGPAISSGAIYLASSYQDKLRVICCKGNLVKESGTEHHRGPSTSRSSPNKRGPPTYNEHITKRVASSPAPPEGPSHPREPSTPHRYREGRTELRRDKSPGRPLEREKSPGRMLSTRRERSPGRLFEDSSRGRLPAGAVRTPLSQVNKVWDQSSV
Chain of LRRK2(G2019S) (Q5S007 whole entry G2019S): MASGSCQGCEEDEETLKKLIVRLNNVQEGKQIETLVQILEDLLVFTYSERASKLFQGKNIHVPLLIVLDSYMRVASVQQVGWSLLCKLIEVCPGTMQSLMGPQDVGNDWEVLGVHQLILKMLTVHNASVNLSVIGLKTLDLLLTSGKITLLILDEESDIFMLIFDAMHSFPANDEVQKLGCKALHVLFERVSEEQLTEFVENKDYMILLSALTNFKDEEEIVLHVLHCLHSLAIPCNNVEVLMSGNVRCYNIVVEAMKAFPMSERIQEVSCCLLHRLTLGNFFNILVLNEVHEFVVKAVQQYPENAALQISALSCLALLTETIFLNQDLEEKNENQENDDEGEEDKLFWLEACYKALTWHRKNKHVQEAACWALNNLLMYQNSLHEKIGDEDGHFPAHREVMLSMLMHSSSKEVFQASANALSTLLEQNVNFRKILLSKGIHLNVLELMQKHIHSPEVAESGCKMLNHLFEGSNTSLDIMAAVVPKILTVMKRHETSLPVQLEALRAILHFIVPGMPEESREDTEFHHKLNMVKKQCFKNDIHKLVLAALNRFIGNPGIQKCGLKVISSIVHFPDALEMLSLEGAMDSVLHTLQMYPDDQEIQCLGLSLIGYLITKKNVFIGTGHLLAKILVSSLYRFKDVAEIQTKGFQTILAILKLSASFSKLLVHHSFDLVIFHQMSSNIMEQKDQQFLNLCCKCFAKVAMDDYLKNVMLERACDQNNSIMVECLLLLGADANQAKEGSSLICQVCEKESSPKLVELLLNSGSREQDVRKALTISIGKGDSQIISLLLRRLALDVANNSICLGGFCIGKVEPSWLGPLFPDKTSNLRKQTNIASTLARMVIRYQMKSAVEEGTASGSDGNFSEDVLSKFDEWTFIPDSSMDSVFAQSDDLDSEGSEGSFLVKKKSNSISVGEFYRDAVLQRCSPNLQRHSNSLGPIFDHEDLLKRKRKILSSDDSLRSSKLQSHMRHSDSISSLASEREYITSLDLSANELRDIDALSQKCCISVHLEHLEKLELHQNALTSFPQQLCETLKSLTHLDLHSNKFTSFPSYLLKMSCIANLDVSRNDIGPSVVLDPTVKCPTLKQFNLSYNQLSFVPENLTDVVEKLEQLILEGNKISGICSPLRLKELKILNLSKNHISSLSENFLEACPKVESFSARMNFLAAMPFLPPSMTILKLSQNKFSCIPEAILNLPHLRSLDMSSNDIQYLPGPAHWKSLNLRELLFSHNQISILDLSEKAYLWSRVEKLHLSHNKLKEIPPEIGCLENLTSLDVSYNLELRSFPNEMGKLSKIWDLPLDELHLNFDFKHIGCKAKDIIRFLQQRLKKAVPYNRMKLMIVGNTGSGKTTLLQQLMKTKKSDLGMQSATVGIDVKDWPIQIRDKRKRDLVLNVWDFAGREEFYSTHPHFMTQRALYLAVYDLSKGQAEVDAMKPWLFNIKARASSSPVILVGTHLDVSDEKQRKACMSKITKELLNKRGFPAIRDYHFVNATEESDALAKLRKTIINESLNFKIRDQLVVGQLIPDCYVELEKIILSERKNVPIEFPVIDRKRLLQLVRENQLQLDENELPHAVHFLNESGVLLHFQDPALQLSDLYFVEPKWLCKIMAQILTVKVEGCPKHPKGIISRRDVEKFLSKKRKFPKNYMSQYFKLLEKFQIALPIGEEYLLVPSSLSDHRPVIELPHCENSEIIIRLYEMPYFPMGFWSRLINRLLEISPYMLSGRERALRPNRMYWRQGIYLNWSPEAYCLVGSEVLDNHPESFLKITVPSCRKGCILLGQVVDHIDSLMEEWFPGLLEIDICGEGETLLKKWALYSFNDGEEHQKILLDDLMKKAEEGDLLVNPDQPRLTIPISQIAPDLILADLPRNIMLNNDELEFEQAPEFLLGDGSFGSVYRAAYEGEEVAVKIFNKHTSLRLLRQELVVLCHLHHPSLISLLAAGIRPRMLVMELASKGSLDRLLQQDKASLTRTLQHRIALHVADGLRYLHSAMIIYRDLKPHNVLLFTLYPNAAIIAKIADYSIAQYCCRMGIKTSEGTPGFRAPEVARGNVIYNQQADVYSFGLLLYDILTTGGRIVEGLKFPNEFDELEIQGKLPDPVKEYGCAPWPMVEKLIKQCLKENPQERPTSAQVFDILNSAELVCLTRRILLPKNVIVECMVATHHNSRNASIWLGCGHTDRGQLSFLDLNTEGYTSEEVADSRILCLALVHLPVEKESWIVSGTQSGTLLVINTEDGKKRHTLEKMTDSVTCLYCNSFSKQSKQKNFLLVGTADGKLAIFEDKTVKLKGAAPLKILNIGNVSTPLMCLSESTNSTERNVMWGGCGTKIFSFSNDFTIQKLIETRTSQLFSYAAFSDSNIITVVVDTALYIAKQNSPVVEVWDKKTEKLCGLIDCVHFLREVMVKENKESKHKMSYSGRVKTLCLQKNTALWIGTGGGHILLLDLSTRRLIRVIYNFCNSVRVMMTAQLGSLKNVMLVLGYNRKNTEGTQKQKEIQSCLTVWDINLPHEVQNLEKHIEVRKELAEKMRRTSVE
Chain of SBK1 (Q52WX2 whole entry): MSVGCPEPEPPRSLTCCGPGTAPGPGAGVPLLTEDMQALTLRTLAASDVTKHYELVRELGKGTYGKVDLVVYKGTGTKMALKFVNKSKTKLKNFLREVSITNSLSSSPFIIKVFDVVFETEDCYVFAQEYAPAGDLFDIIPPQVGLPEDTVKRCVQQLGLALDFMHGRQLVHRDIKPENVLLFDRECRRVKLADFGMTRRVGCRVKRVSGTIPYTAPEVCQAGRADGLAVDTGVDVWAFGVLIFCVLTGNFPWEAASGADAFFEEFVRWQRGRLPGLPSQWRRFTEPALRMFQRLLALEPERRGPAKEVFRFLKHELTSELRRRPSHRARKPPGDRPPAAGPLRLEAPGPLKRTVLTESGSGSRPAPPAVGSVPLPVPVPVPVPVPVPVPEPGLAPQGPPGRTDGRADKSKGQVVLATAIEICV

## CCN1CCN(Cc2cc(NC(=O)c3ccc(C)c(-c4ccc5nc(NC(=O)C6CC6)cn5n4)c3)cc(C(F)(F)F)c2)CC1 [Compound I-2, 3-(2-(cyclopropanecarboxamido)imidazo[1,2-b]pyridazin-6-yl)-N-(3-((4-ethylpiperazin-1-yl)methyl)-5-(trifluoromethyl)phenyl)-4-methylbenzamide]
[1]
  remaining binding at 1 µM: 14%
[2]
  remaining binding at 1 µM: 1%
[3]
  remaining binding at 1 µM: 14%
[4]
  remaining binding at 1 µM: 4.8%
[5]
  remaining binding at 1 µM: 84%
[6]
  remaining binding at 1 µM: 87%
[7]
  remaining binding at 1 µM: 82%
[8]
  remaining binding at 1 µM: 93%
[9]
  remaining binding at 1 µM: 79%
[10]
  remaining binding at 1 µM: 84%
[11]
  remaining binding at 1 µM: 0.1%
[12]
  remaining binding at 1 µM: 100%
[13]
  remaining binding at 1 µM: 77%
[14]
  remaining binding at 1 µM: 86%
[15]
  remaining binding at 1 µM: 78%
[16]
  remaining binding at 1 µM: 100%
[17]
  remaining binding at 1 µM: 1.4%
[18]
  remaining binding at 1 µM: 66%
[19]
  remaining binding at 1 µM: 6.1%
[20]
  remaining binding at 1 µM: 100%
[21]
  remaining binding at 1 µM: 66%
[22]
  remaining binding at 1 µM: 50%
[23]
  remaining binding at 1 µM: 99%
[24]
  remaining binding at 1 µM: 0.1%
[25]
  remaining binding at 1 µM: 100%
[26]
  remaining binding at 1 µM: 96%
[27]
  remaining binding at 1 µM: 2.2%
[28]
  remaining binding at 1 µM: 65%
[29]
  remaining binding at 1 µM: 72%
[30]
  remaining binding at 1 µM: 100%
[31]
  remaining binding at 1 µM: 0.75%
[32]
  remaining binding at 1 µM: 100%
[33]
  remaining binding at 1 µM: 86%
[34]
  remaining binding at 1 µM: 93%
[35]
  remaining binding at 1 µM: 95%
[36]
  remaining binding at 1 µM: 100%
[37]
  remaining binding at 1 µM: 92%
[38]
  remaining binding at 1 µM: 30%

## CCN1CCN(Cc2cc(NC(=O)c3ccc(C)c(-c4ccc5nc(NC(=O)C6CC6)cn5c4)c3)cc(C(F)(F)F)c2)CC1 [Compound I-6, 3-(2-(cyclopropanecarboxamido)imidazo[1,2-a]pyridin-6-yl)-N-(3-((4-ethylpiperazin-1-yl)methyl)-5-(trifluoromethyl)phenyl)-4-methylbenzamide]
[1]
  remaining binding at 1 µM: 13%
[2]
  remaining binding at 1 µM: 2.5%
[3]
  remaining binding at 1 µM: 18%
[4]
  remaining binding at 1 µM: 27%
[5]
  remaining binding at 1 µM: 100%
[6]
  remaining binding at 1 µM: 85%
[7]
  remaining binding at 1 µM: 92%
[8]
  remaining binding at 1 µM: 98%
[9]
  remaining binding at 1 µM: 100%
[10]
  remaining binding at 1 µM: 78%
[11]
  remaining binding at 1 µM: 0.35%
[12]
  remaining binding at 1 µM: 91%
[13]
  remaining binding at 1 µM: 57%
[14]
  remaining binding at 1 µM: 89%
[15]
  remaining binding at 1 µM: 91%
[16]
  remaining binding at 1 µM: 91%
[17]
  remaining binding at 1 µM: 5.8%
[18]
  remaining binding at 1 µM: 100%
[19]
  remaining binding at 1 µM: 7.4%
[20]
  remaining binding at 1 µM: 98%
[21]
  remaining binding at 1 µM: 30%
[22]
  remaining binding at 1 µM: 97%
[23]
  remaining binding at 1 µM: 97%
[24]
  remaining binding at 1 µM: 0%
[25]
  remaining binding at 1 µM: 97%
[26]
  remaining binding at 1 µM: 78%
[27]
  remaining binding at 1 µM: 3.1%
[28]
  remaining binding at 1 µM: 42%
[29]
  remaining binding at 1 µM: 100%
[30]
  remaining binding at 1 µM: 59%
[31]
  remaining binding at 1 µM: 0.2%
[32]
  remaining binding at 1 µM: 99%
[33]
  remaining binding at 1 µM: 100%
[34]
  remaining binding at 1 µM: 71%
[35]
  remaining binding at 1 µM: 100%
[36]
  remaining binding at 1 µM: 97%
[37]
  remaining binding at 1 µM: 94%
[38]
  remaining binding at 1 µM: 29%

Reference: patent US20230391768A2, “IMIDAZOPYRIDINE DERIVATIVES AND AZA-IMIDAZOPYRIDINE DERIVATIVES AS JANUS KINASE 2 INHIBITORS AND USES THEREOF” (Dana-Farber Cancer Institute, Inc., priority 2018, published 2023)
